Test results: paper PMC12348844, “Anti-Trypanosoma cruzi Potential of New Pyrazole-Imidazoline Derivatives” (Molecules, 2025)
Where two headings read alike, the source gives them in different places.

How the values were obtained:
[1] = tested on: T. cruzi Dm28c-Luc trypomastigotes; assay: Anti-T. cruzi in vitro assay, trypomastigotes (luminescence); assay type: cell-based; details: Trypanosoma cruzi, 24 h, mean ± SD
Method: (§1) The genetically modified Trypanosoma cruzi, clone Dm28c (TcI), expressing luciferase (Dm28c-Luc), was kindly provided by Dr. Cristina Henriques from Oswaldo Cruz Institute—Fiocruz. The parasites were maintained using Vero cell cultures in RPMI 1640 medium enriched with 10% FBS. At 4 days post-infection (dpi), the trypomastigotes released into the culture supernatant were harvested, subjected to centrifugation at 800× g for 20 min at 4 °C, and quantified with a Neubauer chamber. The isolated trypomastigotes were subsequently used for phenotypic screening, drug efficacy assessments employing a 3D cardiac model, washout experiments to evaluate reversibility, drug combination studies, and enzymatic assays.
Drug susceptibility assays were performed on T. cruzi Dm28c-Luc, a genetically engineered parasite expressing luciferase. The drug screening used both trypomastigotes and intracellular amastigotes. Trypomastigotes (1 × 10^6 parasites/well) were added to white 96-well plates with clear bottoms. […] The luminescence was measured using a Glomax Multi-Detection plate reader (Promega Corporation, Madison, WI, USA).

[2] = Cytotoxicity in 3D cardiac spheroids (CellTiter-Glo); assay type: cell-based; details: Swiss Webster, mouse, 3D cardiac spheroids from fetal heart muscle cells, 15.6 to 500 µM
Method: Three-dimensional (3D) heart muscle cell cultures were obtained as previously described. Briefly, heart muscle cells were isolated from 18-day-old Swiss Webster mouse fetuses. The ventricular tissue was fragmented and enzymatically dissociated using a trypsin and collagenase type II solution. The isolated cells were seeded at a density of 2.5 × 10^4 cells/well in 96-well U-bottom microplates previously coated with 1% agarose. The cells were cultured in Dulbecco’s modified Eagle Medium (DMEM) enriched with 10% FBS, 2.5 mM CaCl2, 1 mM L-glutamine, 2% chicken embryo extract, and a cocktail of antibiotics. The cultures were maintained at 37 °C in a 5% CO2 atmosphere. After a 7-day culture period, the resulting fully developed spheroids were used to assess drug-induced cardiotoxicity and evaluate their efficacy against T. cruzi. […]
The cytotoxicity of the promising candidate was assessed using 3D cardiac spheroids, seeded at 2.5 × 10^4 cells per well. The cultures were treated with a series of concentrations as previously described, and the cell viability was measured using luminescence following the addition of CellTiter-Glo reagent (Promega Corporation, Madison, WI, USA). […] The data shown represents the mean value accompanied by standard deviations, calculated from at least three independent experiments, each performed in duplicate.

[3] = tested on: intracellular amastigotes of T. cruzi; assay: Drug combination with Bz, fixed-ratio isobologram, intracellular amastigotes; assay type: cell-based; details: Trypanosoma cruzi; proportion 1k:Bz 5:0, 72 h; read-out: IC50 (Mean ± DP) in combination assay
Method: The isobologram approach assessed the interaction between Bz and the promising candidate in intracellular amastigotes of T. cruzi. Vero cell cultures infected with T. cruzi (Dm28c-Luc) were treated for 72 h with various concentrations of combinations of Bz and the promising candidate, specifically at ratios of 5:0; 4:1; 3:2; 2:3; 1:4 and 0:5. The maximum concentration of each compound was established based on their IC50 values, ensuring both reached the fourth dilution in the serial dilution setup (1:3), culminating in a total of seven dilutions. After 72 h of treatment, parasite viability was measured by luminescence in a Glomax Multi-Detection plate reader (Promega Corporation, Madison, WI, USA) after incubation with luciferin. The IC50 values of each treatment combination were calculated individually, and the fractional inhibitory concentration index (FICI) was derived using the formula FICI = IC50 of the combination/IC50 of the compound alone. The overall FICI (ΣFICI) was calculated by summing the FICIs for both compounds in each combination group, while the average ΣFICI (xΣFICI) represented the overall mean across all combination groups. The xΣFICI values were then employed to classify the interaction as synergistic (xΣFICI ≤ 0.5), additive (0.5 < xΣFICI < 4), or antagonistic (xΣFICI > 4). […]

[4] = tested on: T. cruzi cysteine protease; assay: Cysteine protease activity in trypomastigote protein extract (Z-Phe-Arg-AMC); assay type: biochemical, Trypanosoma cruzi; details: 90 min, 37 °C, 33.3, 100 and 300 µM tested
Method: Total proteins from T. cruzi Dm28c-Luc were extracted using a lysis buffer [100 mM Tris-HCl pH 8.0, 150 mM NaCl, 10% glycerol, 0.5% Triton X-100]. The protein concentration was quantified using the Bradford assay, with bovine serum albumin (BSA) used to establish the standard curve. For the assessment of cysteine protease activity, 5 μg of the protein extract was incubated in an acetate buffer [10 mM sodium acetate, pH 5.0], supplemented with 1 mM dithiothreitol (DTT) in a final volume of 100 μL. The reaction used a fluorogenic peptide substrate, N-benzoyloxycarbonyl-L-phenylalanyl-L-arginine 7-amino-4-methylcoumarin (Z-FR-AMC), at a concentration of 60 μM. Incubation was conducted at 37 °C for 90 min, with relative fluorescence changes measured using a SpectraMax M2e spectrophotometer (Molecular Devices, Sunnyvale, CA, USA). Inhibition assays were performed using three concentrations (33.3, 100, and 300 µM) of the promising candidate and trans-epoxysuccinyl-L-leucylamido(4-guanidino)butane (E-64), each analyzed separately. A control was included using a low DMSO concentration (≤1%). Enzymatic activity was expressed in µmol/min/mg of protein, with residual activity presented as a percentage.

[5] = tested on: T. cruzi Dm28c-Luc intracellular amastigotes; assay: Anti-T. cruzi in vitro assay, intracellular amastigotes in Vero cells (luminescence); assay type: cell-based, Trypanosoma cruzi; details: for IC50: Vero
Method: as §1
To evaluate the effect of pyrazole-imidazoline derivatives against intracellular amastigotes, Vero cells (1.5 × 10^4 cells/well) were cultured in a white 96-well plate with a clear bottom and subsequently infected with T. cruzi Dm28c-Luc at a 10:1 parasite-to-host cell ratio for 24 h. […] Parasite viability was measured by luminescence following the addition of luciferin (300 µg/mL). Background measurements (non-infected cultures incubated with luciferin, as well as luciferin-only controls) were performed to ensure the signal specifically originates from viable parasites. The IC50 and IC90 values, denoting the concentrations that achieve 50% and 90% reductions in viable parasites, respectively, were calculated using GraphPad Prism 8.2.1 software. Additionally, the selectivity index (SI) was calculated as the cytotoxic concentration (CC50) ratio in mammalian cells to the IC50 against T. cruzi, providing insight into the therapeutic window. Potency against intracellular amastigotes was evaluated using the formula 6—Log10 (IC50).

Structure (SMILES): FC(F)(F)c1ccc(-n2cc(C3=NCCN3)cn2)cc1 [1k, 1-(4-trifluoromethylphenyl)-4-(4,5-dihydro-1H-imidazol-2-yl)-1H-pyrazole]
- IC50 [1]: 72.2 ± 10.3 µM
- IC90 [1]: > 100 µM
- CC50 at 72 h [2]: 173 ± 6.8 µM
- IC50 [3]: 3.75 ± 0.35 µM
- inhibition of cysteine protease activity [4]: 3.76%
- SI (selectivity index = CC50/IC50) ([5]; CC50 Vero cells / IC50 intracellular amastigotes): 73.9
- IC50 ([5]; Trypanosoma cruzi, 72 h, Dm28c-Luc in Vero cells, mean ± SD, read-out: Intracellular Amastigotes IC50): 3.3 ± 0.2 µM
- IC50 ([5]; Trypanosoma cruzi, intracellular amastigotes, 6 − Log10(IC50), read-out: pIC50 (potency) (converted)): 3.98 µM
- IC90 ([5]; Trypanosoma cruzi, 72 h, Dm28c-Luc in Vero cells, mean ± SD): 28.1 ± 0.4 µM
- enhancement in anti-T. cruzi activity relative to the hit compound ([5]; hit compound = 5-amino-pyrazole-imidazoline): 5 fold
